In general, inhibition refers to the percentage by which the read-out fell short of the control. For orientation: IC50 means the point on the concentration scale where inhibition reaches its midpoint. For orientation: % Inhibition means the share of the control response that was lost under treatment. High values mean strong suppression, low ones little suppression.

SMILES strings stand for the structures. Bounds are passed on as bounds.

Assay type in all cases: biochemical
Experiment [1] deals with T1, Caspase-10 (Homo sapiens, UniProt Q92851).
T1 construct: mixing the compounds with the respective active caspases; purchased BioVision K160-100
T1 sequence (Q92851 220-415 limits assumed): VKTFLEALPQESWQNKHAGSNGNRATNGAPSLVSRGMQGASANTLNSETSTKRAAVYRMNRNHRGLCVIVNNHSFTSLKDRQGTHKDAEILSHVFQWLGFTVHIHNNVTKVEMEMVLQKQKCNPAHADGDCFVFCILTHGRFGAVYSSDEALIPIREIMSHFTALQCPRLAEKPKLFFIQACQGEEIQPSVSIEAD
T1 sequence (Q92851 416-521 limits assumed): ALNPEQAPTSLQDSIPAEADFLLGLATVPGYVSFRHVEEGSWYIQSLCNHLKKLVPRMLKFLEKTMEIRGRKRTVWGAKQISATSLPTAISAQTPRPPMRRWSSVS
Description: Caspase-10 inhibitor screening assay (BioVision kit, AEVD-AFC). The conditions noted are these: for inhibition at 10 µM: read-out: % Inhibition at 10 uM Casp10; for inhibition at 100 µM: read-out: % Inhibition at 100 uM Casp10; for IC50: read-out: IC50 Casp10. Here is the method: (§1) The efficacy of an array of compounds as an inhibitor of the activity of Caspases 1 through 10 were assessed by using the respective Caspase Inhibitor Drug Screening Kits (Caspase-1 Catalog #: K151-100, Caspase-2 Catalog #: K152-100, Caspase-3 Catalog #: K153-100, Caspase-4 Catalog #: K154-100, Caspase-5 Catalog #: K155-100, Caspase-6 Catalog #: K156-100, Caspase-7 Catalog #: K157-100, Caspase-8 Catalog #: K158-100, Caspase-9 Catalog #: K159-100, Caspase-10 Catalog #: K160-100, BioVision) following the instructions of the manufacturer. […] Active caspases cleaved their respective synthetic substrates to release free AFC, which was then quantified by fluorometry.
(§2) Briefly, the compounds were first tested at 2 concentrations (10 uM and 100 uM final) to determine if there is a hit. […] Each condition was tested in duplicates. […] For some samples, a smaller range of concentrations was tested depending on the % Inhibition results at 10 uM and 100 uM. Results were summarized in Tables 2, 3, and 4 herein after. Table 2 represents the IC50 values (uM) of the test compounds as inhibitors of the activity of the various caspases.
(§3) (*) RFU (no inhibitor control)—RFU (compound at a specific concentration)
(§4) RFU (no inhibitor control)

Experiment [2] concerns the target T2, Caspase-4 (Homo sapiens, UniProt P49662).
T2 construct: mixing the compounds with the respective active caspases; purchased BioVision K154-100
T2 sequence (P49662 81-270 limits assumed): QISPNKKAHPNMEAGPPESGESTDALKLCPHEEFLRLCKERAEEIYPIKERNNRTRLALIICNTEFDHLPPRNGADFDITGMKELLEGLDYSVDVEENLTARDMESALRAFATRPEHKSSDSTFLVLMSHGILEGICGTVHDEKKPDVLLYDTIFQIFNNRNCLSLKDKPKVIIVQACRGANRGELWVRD
T2 sequence (P49662 290-377 limits assumed): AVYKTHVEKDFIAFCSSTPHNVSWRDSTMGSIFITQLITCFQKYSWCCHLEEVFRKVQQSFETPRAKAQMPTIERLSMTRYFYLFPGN
Description: Caspase-4 inhibitor screening assay (BioVision kit, LEVD-AFC). The conditions noted are these: for inhibition at 10 µM: read-out: % Inhibition at 10 uM Casp4; for inhibition at 100 µM: read-out: % Inhibition at 100 uM Casp4; for IC50: read-out: IC50 Casp4. Here is the method: as §1, §2, §3, §4

Experiment [3] concerns the target T3, Caspase-6 (Homo sapiens, UniProt P55212).
T3 construct: mixing the compounds with the respective active caspases; purchased BioVision K156-100
T3 sequence (P55212 24-179 limits assumed): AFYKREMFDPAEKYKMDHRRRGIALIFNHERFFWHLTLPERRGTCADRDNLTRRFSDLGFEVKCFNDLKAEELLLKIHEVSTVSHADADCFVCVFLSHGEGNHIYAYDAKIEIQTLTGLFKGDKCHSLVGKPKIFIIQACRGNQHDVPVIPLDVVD
T3 sequence (P55212 194-293 limits assumed): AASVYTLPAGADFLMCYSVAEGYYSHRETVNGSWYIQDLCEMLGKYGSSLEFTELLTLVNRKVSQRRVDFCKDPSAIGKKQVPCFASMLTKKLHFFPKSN
Description: Caspase-6 inhibitor screening assay (BioVision kit, VEID-AFC). The following applies: for inhibition at 10 µM: read-out: % Inhibition at 10 uM Casp6; for inhibition at 100 µM: read-out: % Inhibition at 100 uM Casp6; for IC50: read-out: IC50 Casp6. Here is the method:
as §1, §2, §3, §4

Experiment [4] addresses T4, Caspase-5 (Homo sapiens, UniProt P51878).
T4 construct: mixing the compounds with the respective active caspases; purchased BioVision K155-100
T4 sequence (P51878 137-327 limits assumed): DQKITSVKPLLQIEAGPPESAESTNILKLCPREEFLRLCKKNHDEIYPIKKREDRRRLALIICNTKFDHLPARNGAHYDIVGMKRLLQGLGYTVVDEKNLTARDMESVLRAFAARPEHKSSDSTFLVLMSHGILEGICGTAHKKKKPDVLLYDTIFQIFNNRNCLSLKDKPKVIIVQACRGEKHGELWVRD
T4 sequence (P51878 347-434 limits assumed): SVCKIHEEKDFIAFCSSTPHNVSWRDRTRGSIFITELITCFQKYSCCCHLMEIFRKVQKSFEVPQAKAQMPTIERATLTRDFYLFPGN
Kind of experiment: Caspase-5 inhibitor screening assay (BioVision kit, WEHD-AFC). The conditions noted are these: for inhibition at 10 µM: read-out: % Inhibition at 10 uM Casp5; for inhibition at 100 µM: read-out: % Inhibition at 100 uM Casp5; for IC50: read-out: IC50 Casp5. As for the experimental part: as §1, §2, §3, §4

For `CC(C)(C)[C@H](NC(=O)c1ccc2ncccc2n1)C(=O)N1CCCC1C(=O)N[C@H](/C=C/S(C)(=O)=O)CC(=O)O` (stereo in doubt) [Compound 8, (1,5-Naphthyridine-2-carbonyl)-t-Leu-Pro-Asp methyl vinyl sulfone], the inhibition at 10 µM in experiment [1] amounted to 27%; in experiment [2] it was 88%; in experiment [3], 2%; in experiment [4] it was 65%. Also, the inhibition at 100 µM came out at 90% in experiment [1] (100 uM), 100% in experiment [2], 1% in experiment [3] and 97% in experiment [4]. The half-inhibitory concentration (IC50) was 18 µM in experiment [1], 0.63 µM in experiment [2], more than 100 µM in experiment [3] and 5.9 µM in experiment [4].

For `CC(C)(C)[C@H](NC(=O)c1ccc2ncccc2c1)C(=O)N1CCCC1C(=O)N[C@H](/C=C/S(C)(=O)=O)CC(=O)O` (stereo in doubt) [Compound 10, Quinoline-6-carbonyl-t-Leu-Pro-Asp methyl vinyl sulfone], the inhibition at 10 µM was found to be 65% in experiment [1], 91% in experiment [2], 0% in experiment [3] and 78% in experiment [4]. Moreover, the inhibition at 100 µM in experiment [1] (100 uM) is 98%; in experiment [2] it was 100%; in experiment [3] it was 0%; in experiment [4], 98%. The IC50 is 4.67 µM in experiment [1], 1.92 µM in experiment [2], more than 100 µM in experiment [3] and 3 µM in experiment [4].

In the case of `CS(=O)(=O)/C=C/[C@H](CC(=O)O)NC(=O)C1CCCN1C(=O)[C@@H](NC(=O)[C@H](CC(=O)O)NC(=O)OCc1ccccc1)C1CC1` (stereo in doubt) [Compound 28, Z-Asp-Cyclopropylglycine-Pro-Asp-methyl vinyl sulfone], the inhibition at 10 µM in experiment [1] amounted to 82%; in experiment [2], 73%; in experiment [3], 2%; in experiment [4] it was 14%. Besides, the inhibition at 100 µM came to 99% in experiment [1] (100 uM), 100% in experiment [2], 4% in experiment [3] and 69% in experiment [4]. Further, the IC50 in experiment [1] is 2.45 µM; in experiment [2], 5.22 µM; in experiment [3], more than 100 µM; in experiment [4], 46.2 µM.

`CC(C)[C@H](NC(=O)OCc1ccccc1)C(=O)N[C@H](/C=C(\Cl)S(C)(=O)=O)CC(=O)O` [Compound 2, Cbz-Val-Asp achlorovinyl methyl vinyl sulfone]: the inhibition at 10 µM in experiment [1] came to 0%; in experiment [2] it was 0%; in experiment [3] it was 1%; in experiment [4], 10%. The “% Inhibition at 100 uM Casp10” value in experiment [1] (100 uM) was 31%. For the same compound, the inhibition at 100 µM in experiment [1] (100 uM) stood at 48%; in experiment [2], 6%; in experiment [3], 19%; in experiment [4], 12%. The IC50 in experiment [1], in experiment [2], in experiment [3] and in experiment [4] was more than 100 µM each time.

On to `CC(C)[C@H](NC(=O)OCc1ccccc1)C(=O)N[C@H](/C=C/S(C)(=O)=O)CC(=O)O` [Compound 3, Z-Val-Asp methyl vinyl sulfone], for which the inhibition at 10 µM in experiment [1] worked out at 15%; in experiment [2] it was 0%; in experiment [3] it was 0%; in experiment [4], 0%. Further, the inhibition at 100 µM in experiment [1] (100 uM) turned out to be 50%; in experiment [2], 2%; in experiment [3], 0%; in experiment [4], 0%. The IC50 in experiment [1], in experiment [2], in experiment [3] and in experiment [4] was more than 100 µM in each case.

The values above are taken from patent US10975119B2, “Selective cysteine protease inhibitors and uses thereof” (Genesis Technologies Limited, priority 2011, dated 2021).
